Reference: patent publication US20080032933A1, “Type V Phosphodiesterase Inhibitors and Natriuretic Polypeptides” (MAYO FOUNDATION FOR MEDICAL EDUCATION AND RESEARCH, priority 2005, published 2008)
Like-named read-outs stand apart in the source and are kept apart here. No end group written: not given here.

Experiments:
[1] = system: male mongrel dogs with overt chronic heart failure produced by rapid ventricular pacing; assay: Cardiorenal and neurohumoral profile on day 11 of pacing-induced CHF; type: in vivo, dog
Method: A model of pacing-induced overt chronic heart failure was used (Chen et al., Circulation, 100:2443-2448 (1999)). Briefly, all dogs underwent implantation of a programmable cardiac pacemaker (Medtronic, Minneapolis, Minn.). Under pentobarbital sodium anesthesia (30 mg/kg, intravenous) and artificial ventilation (Harvard respirator, Harvard Apparatus, Millis, Mass.) with 5 L/min supplemental oxygen, a left lateral thoracotomy and pericardiotomy were performed. With the heart exposed, a screw-in epicardial pacemaker lead was implanted into the right ventricle. The pacemaker generator was implanted subcutaneously into the left chest wall and connected to the pacemaker lead. Dogs received pre- and post-operative prophylactic antibiotic treatment with 225 mg clindamycin subcutaneously and 400,000 U procaine penicillin G plus 500 mg dihydrostreptomycin intramuscularly (Combiotic, Pfizer, Inc., New York, N.Y.). Post-operative prophylactic antibiotic was continued through the first two post-operative days. Dogs were fed a fixed sodium diet (58 mEq/day, Hill's ID) and allowed water ad lib. All dogs were walked daily. Appetite, activity, body temperature, and condition of surgical skin sites were documented. Following a 14-day post-operative recovery period, the pacemaker was turned on at 240 bpm. […]
(§1) Glomerular filtration rate (GFR) was measured by inulin clearance.
(§2) Results were expressed as mean ±SEM. […] GraphPad Prism software was used for the above calculation. Statistical significance was accepted as p<0.05.

[2] = system: male mongrel dogs with overt chronic heart failure produced by rapid ventricular pacing; assay: Humoral, hemodynamic and renal response to acute SQ BNP on day 11 of pacing-induced CHF
Method: (§3) Studies were conducted in 2 groups of male mongrel dogs (18-23 kg) with overt chronic heart failure produced by rapid ventricular pacing at 240 beats per minute (bpm) for ten days on a fixed sodium diet. Group 1 (n=6) received Sildenafil (50 mg orally three times a day) during the 10 days of pacing and one dose an hour before the subcutaneous (SQ) administration of BNP on day 11. Group 2 (n=6) received no PDE V inhibitor, but did receive SQ BNP alone on day 11 of CHF.
(§4) Acute SQ BNP administration was performed as follows. On day 11 of rapid ventricular pacing at 240 bpm, an experiment was carried out to determine the cardiorenal and humoral function in both groups and also the response to acute SQ BNP administration (5 μg/kg). […] On the morning of the experiment, only group 1 received a final dose of Sildenafil 50 mg one hour before the dogs were anesthetized with sodium pentobarbital (15 mg/kg, i.v.), intubated, and mechanically ventilated with supplemental oxygen (Harvard respirator, Amersham, Millis, Mass.) at 20 cycles per minute. A flow-directed balloon-tipped thermodilution catheter (Ohmeda, Criticath, Madison, Wis.) was advanced into the pulmonary artery via the external jugular vein for cardiac hemodynamic measurement. The femoral artery was cannulated for blood pressure monitoring and blood sampling. The femoral vein was also cannulated for inulin and normal saline infusion. The left kidney was exposed via a flank incision, and the ureter was cannulated for urine collection. A calibrated electromagnetic flow probe was placed around the renal artery to measure renal blood flow (RBF).
(§5) The experiment began after a 60-minute equilibration period, with a 30-minute baseline urinary clearance. After the 30-minute baseline urinary clearance, SQ canine BNP 5 μg/kg was administered in the right hind leg. Following a 15-minute lead-in period, a 60-minute urinary clearance period was performed. Cardiovascular parameters measured during the acute experiment included mean arterial blood pressure (MAP), right atrial pressure (RAP), mean pulmonary arterial pressure (PAP), cardiac output (CO), and pulmonary capillary wedge pressure (PCWP). CO was determined by thermodilution in triplicate and averaged (Cardiac Output model 9510-A computer, American Edwards Laboratories, Irvine, Calif.). MAP was assessed via direct measurement from the femoral arterial catheter. Systemic vascular resistance (SVR) was calculated as [SVR=(MAP−RAP)/CO]. Inulin was administered intravenously at the start of the equilibration period as a calculated bolus, followed by a 1 mL/min continuous infusion to achieve plasma levels of 40-60 mg/dL. Glomerular filtration rate (GFR) was measured by inulin clearance.
(§6) Cardiovascular hemodynamics were measured at the start of each urinary clearance. Arterial blood was collected in heparin and EDTA tubes and immediately placed on ice midway through each clearance. After centrifugation at 2,500 rpm at 4° C., plasma was decanted and stored at −20° C. until analysis. Urine was collected on ice during the entire period of each clearance for assessment of urine volume, electrolytes, and inulin. Urine collected for cGMP analysis was heated to more than 90° C. before storage.
(§7) Plasma samples for BNP renin and angiotensin II were measured by radioimmunoassay (RIA) using methods described elsewhere (Chen et al., Circulation, 96:I-524 (1997)). Plasma and urinary samples for cGMP were measured by RIA using methods described elsewhere (Steiner et al., J. Biol. Chem., 247:1106-1113 (1972)). Urinary and plasma inulin concentrations were measured by the anthrone method (Davidson and Sachner, J. Lab. Clin. Med., 62:351-356 (1963)).

[3] = system: male mongrel dogs with overt chronic heart failure produced by rapid ventricular pacing; assay: LV remodeling (echocardiography FS, CO, LV mass, plasma BNP) after 10 days of PDE V inhibitor in pacing-induced CHF; type: in vivo, dog
Method: A model of pacing-induced overt chronic heart failure was used (Chen et al., Circulation, 100:2443-2448 (1999)). Briefly, all dogs underwent implantation of a programmable cardiac pacemaker (Medtronic, Minneapolis, Minn.). Under pentobarbital sodium anesthesia (30 mg/kg, intravenous) and artificial ventilation (Harvard respirator, Harvard Apparatus, Millis, Mass.) with 5 L/min supplemental oxygen, a left lateral thoracotomy and pericardiotomy were performed. With the heart exposed, a screw-in epicardial pacemaker lead was implanted into the right ventricle. The pacemaker generator was implanted subcutaneously into the left chest wall and connected to the pacemaker lead. Dogs received pre- and post-operative prophylactic antibiotic treatment with 225 mg clindamycin subcutaneously and 400,000 U procaine penicillin G plus 500 mg dihydrostreptomycin intramuscularly (Combiotic, Pfizer, Inc., New York, N.Y.). Post-operative prophylactic antibiotic was continued through the first two post-operative days. Dogs were fed a fixed sodium diet (58 mEq/day, Hill's ID) and allowed water ad lib. All dogs were walked daily. Appetite, activity, body temperature, and condition of surgical skin sites were documented. Following a 14-day post-operative recovery period, the pacemaker was turned on at 240 bpm.
Echocardiography was carried out at baseline before the pacemaker was turned on and at day 10 of pacing to determine LV fractional shortening (FS). Echocardiographic images were obtained in the conscious dog standing in a minimally restraining sling. Simultaneous electrocardiography was obtained. The optimal images were generally obtained from the right lateral chest wall just above the sternum at the equivalent of the anterior axillary line. Images analogous to the para-sternal long axis and para-sternal short axis views (human echocardiography) were consistently obtained at the base, mid-ventricular, and para-apical levels. LV two-dimensional (2D) and M-mode images were obtained with a 2.5-MHz ultrasonic transducer (General Electric Systems Five). LV M-mode tracings were obtained under 2D guidance using the 2D short-axis views between the two papillary muscles just distal to the mitral valve leaflet tips. All images were obtained in sinus rhythm. Care was taken to ensure that the M-mode cursor transects the LV in the midline, that the LV image is “on axis” (LV is round, not oval indicating an image between short and long axes), and that the cursor is perpendicular to the LV wall detecting maximal LV thickening of both the septal and posterior walls. End-diastole was defined as the maximal LV diastolic diameter at the peak of the R wave on the EKG, and end-systole was defined as the peak of the LV posterior wall motion. M-mode measurements were made in accordance with the American Society of Echocardiography leading-edge convention using the steepest continuous endocardial echoes. Measurements included LV end-diastolic (LVDd), and end-systolic dimensions (LVDs) were averaged for average dimension. FS (%)=[(LVDd−LVSd)/LVDd]*100.
as §1
At the end of the acute experiment, the heart was harvested, and the LV was carefully dissected out and weighed to determine LV mass. The LV mass was divided by the body weight to give the LV mass/Kg body weight.
as §2

[4] = system: male mongrel dogs with overt chronic heart failure produced by rapid ventricular pacing; conditions: dog, in vivo
Method: as §3, §4, §5, §6, §7

[5] = Sildenafil 50 mg orally three times a day for 10 days of pacing, mean ± SE
[6] = Sildenafil 50 mg orally three times a day for 10 days, P < 0.05 versus Untreated
[7] = PDE V inhibitor-treated group, Baseline (before SQ BNP)
[8] = PDE V inhibitor-treated group, SQ BNP (FIG. 2)
[9] = PDE V inhibitor-treated group, after SQ BNP
[10] = PDE V inhibitor-treated group, after SQ canine BNP 5 μg/kg (combination)
[11] = chronic administration in experimental overt CHF
[12] = 10 days of treatment, compared to the untreated group (FIG. 1)
[13] = Untreated CHF group (no PDE V inhibitor), after SQ canine BNP 5 μg/kg alone
[14] = untreated group (no PDE V inhibitor), SQ BNP alone (FIG. 2)

Molecule: CCCc1nn(C)c2c(=O)[nH]c(-c3cc(S(=O)(=O)N4CCN(C)CC4)ccc3OCC)nc12 [PDE V inhibitor, Sildenafil]
- MAP [1, 5]: 110 ± 4 mmHg
- PAP [1, 5]: 27 ± 1 mmHg
- PCWP [1, 5]: 23 ± 1 mmHg
- RAP [1, 5]: 11 ± 1 mmHg
- RBF [1, 5]: 160 ± 21 mL/min
- UNaV [1, 5]: 2 ± 1 μEq/min
- UV [1, 5]: 0.12 ± 0.01 mL/min
- Plasma cGMP [1, 6]: 43 ± 2 pmol/mL
- Urinary cGMP [1, 6]: 4219 ± 900 pmol/min
- GFR ([1]; Sildenafil 50 mg orally three times a day for 10 days, inulin clearance): 30 ± 5 mL/min
- MAP [2, 7]: 110 ± 4
- PAP [2, 7]: 27 ± 1
- PCWP [2, 7]: 23 ± 1
- Plasma Ang II [2, 7]: 124 ± 2
- Plasma Renin [2, 7]: 16 ± 2
- Plasma cGMP [2, 7]: 43 ± 2 pmol/mL
- RAP [2, 7]: 11 ± 1
- Urinary cGMP Excretion [2, 7]: 4219 ± 900 fmol/min
- GFR change with SQ BNP [2, 8]: increase in GFR
- PTFNa change with SQ BNP [2, 8]: decreased significantly
- UNaV change with SQ BNP [2, 8]: increased
- CO with SQ BNP [2, 9]: unchanged
- plasma BNP levels with SQ BNP [2, 9]: increased similarly
- MAP [2, 10]: 103 ± 7
- PAP [2, 10]: 23 ± 1
- PCWP [2, 10]: 18 ± 1
- Plasma Ang II [2, 10]: 37 ± 2
- Plasma Renin [2, 10]: 9 ± 2
- Plasma cGMP [2, 10]: 46 ± 3 pmol/mL
- RAP [2, 10]: 8 ± 1
- Urinary cGMP Excretion [2, 10]: 8600 ± 1600 fmol/min
- cardiovascular hemodynamic effects ([2]; chronic Sildenafil with acute SQ BNP in experimental overt CHF): without adverse cardiovascular hemodynamic effects
- renal response to acute SQ BNP [2, 11]: enhanced
- CO (cardiac output) [3, 12]: improvement
- LV FS (fractional shortening) [3, 12]: improvement
- LV mass [3, 12]: reduction in LV mass
- plasma BNP levels [3, 12]: strong trend for plasma BNP levels to be lower
- LV remodeling [3, 11]: improved LV remodeling

Molecule: BNP: canine brain natriuretic peptide administered subcutaneously at 5 μg/kg (SPKMMHKSGCFGRRLDRIGSLSGLGCNVLRKY; ends and bridges not checked; cysteine pairing not given here; UniProt P16859 109-140, looked up)
- MAP [2, 13]: 110 ± 5
- PAP [2, 13]: 25 ± 1
- PCWP [2, 13]: 20 ± 1
- Plasma Ang II [2, 13]: 73 ± 31
- Plasma Renin [2, 13]: 20 ± 5
- Plasma cGMP [2, 13]: 25 ± 3 pmol/mL
- RAP [2, 13]: 6 ± 1
- Urinary cGMP Excretion [2, 13]: 3580 ± 351 fmol/min
- GFR change with SQ BNP [2, 14]: not observed
- PTFNa change with SQ BNP [2, 14]: only trended to change
- UNaV change with SQ BNP [2, 14]: only trended to change
- CO with SQ BNP ([2]; untreated group, after SQ BNP alone): unchanged
- plasma BNP levels with SQ BNP [4]: increased similarly
